Data: patent publication US6632975B1, “Method for the production of in vivo model of hepatocellular carcinoma without lung metastasis” (Kabushiki Kaisha Daiyu-Kai Institute of Medical Science, priority 2000, dated 2003)

System: F344 Fisher rats
Experiment: Production of in vivo lung metastatic hepatoma model: incidences of hepatocellular carcinoma and lung metastasis, survival (Example 1)
Set-up: species or system rat
Procedure: Animals used in this example were F344 Fisher rats (purchased from Charles River Japan Inc.).
Diethylnitrosoamine (hereinafter, referred to as “DEN”) and nitrosomorpholine (hereinafter, referred to as “NMOR”) were purchased from Tokyo Kasei Kogyo Co., Ltd.
DEN was diluted with physiological saline, and intraperitoneally injected in animals at a dose of 100 mg/kg body weight, or it was diluted with tap water to make the concentration of 50 ppm and administered via drinking water feeding bottle. NMOR was diluted with tap water to make the concentration of 120 ppm, and administered via a drinking water feeding bottle.
Animals were divided into four groups and treated as follows: Animals of the first group were given 50 ppm of DEN in drinking water for 16 weeks, and were sacrificed and subjected to autopsy in week 16. Animals of the second group were given 100 mg/kg body weight of DEN via intraperitoneal injection at the start of the experiment, and were sacrificed and subjected to autopsy in week 22. Animals of the third group were given 120 ppm of NMOR in drinking water for 22 weeks, and were sacrificed and subjected to autopsy in week 22. Animals of the fourth group were given 100 mg/kg body weight of DEN via intraperitoneal injection at the start of the experiment were given NMOR from the start to week 22 of the experiment, and were sacrificed and subjected to autopsy in week 22.
Liver and lung as well as other tissues were collected, fixed in formalin and stained with hematoxylin-eosin by the standard method to prepare specimens. Specimens were microscopically examined for presence of hepatocellular carcinoma in the liver and metastatic lesion in the lung to determine incidences of hepatocellular carcinoma and lung metastasis, which are shown in FIG. 1.

[1] = DEN 50 ppm in drinking water for 16 weeks, autopsy week 16
[2] = NMOR 120 ppm in drinking water for 22 weeks, autopsy week 22

SMILES	incidence of hepatoma [1]	lung metastasis [1]	incidence of hepatoma [2]	lung metastasis (animals affected) [2]
CCN(CC)N=O [DEN, Diethylnitrosoamine]	100%	no lung metastasis was observed		
O=NN1CCOCC1 [NMOR, nitrosomorpholine]			100%	only one animal
